Key:
[1] = system: barnyardgrass; experiment: Test A preemergence; format: in vivo, Echinochloa crus-galli; details: 0 to 100 scale
Procedure, shortened: (§1)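 Growth medium: loam soil blended with sand. Preemergence treatment used a directed soil spray right after planting; postemergence treatment targeted seedlings at one to two leaves (2–10 cm height). Response was judged by eye relative to untreated plants about 10 days later on a 0–100 control scale.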

[2] = system: crabgrass, large; experiment: Test A preemergence; format: in vivo, Digitaria sanguinalis; details: 0 to 100 scale
Procedure, shortened: as §1

[3] = system: foxtail, giant; experiment: Test A preemergence; format: in vivo, Setaria faberii; details: 0 to 100 scale
Procedure, shortened: as §1

[4] = system: morningglory; experiment: Test A preemergence; format: in vivo, Ipomoea spp.; details: 0 to 100 scale
Procedure, shortened: as §1

[5] = system: pigweed; experiment: Test A preemergence; format: in vivo, Amaranthus retroflexus; details: 0 to 100 scale
Procedure, shortened: as §1

[6] = system: velvetleaf; experiment: Test A preemergence; format: in vivo, Abutilon theophrasti; details: 0 to 100 scale
Procedure, shortened: as §1

[7] = system: wheat; experiment: Test A preemergence; format: in vivo, Triticum aestivum
Procedure, shortened: as §1

[8] = system: corn; experiment: Test A preemergence; format: in vivo, Zea mays; details: 0 to 100 scale
Procedure, shortened: as §1

[9] = system: barnyardgrass; experiment: Test A postemergence; format: in vivo, Echinochloa crus-galli; details: Postemergence
Procedure, shortened: as §1

[10] = system: crabgrass, large; experiment: Test A postemergence; format: in vivo, Digitaria sanguinalis
Procedure, shortened: as §1

[11] = system: foxtail, giant; experiment: Test A postemergence; format: in vivo, Setaria faberii
Procedure, shortened: as §1

[12] = system: morningglory; experiment: Test A postemergence; format: in vivo, Ipomoea spp.
Procedure, shortened: as §1

[13] = system: pigweed; experiment: Test A postemergence; format: in vivo, Amaranthus retroflexus
Procedure, shortened: as §1

[14] = system: velvetleaf; experiment: Test A postemergence; format: in vivo, Abutilon theophrasti
Procedure, shortened: as §1

[15] = system: wheat; experiment: Test A postemergence; format: in vivo, Triticum aestivum
Procedure, shortened: as §1

[16] = system: corn; experiment: Test A postemergence; format: in vivo, Zea mays
Procedure, shortened: as §1

[17] = system: rice; experiment: Test B flood; format: in vivo, Oryza sativa; details: 250 g ai/ha, visual rating on 0 to 100 scale (0 no effect, 100 complete control), 13 to 15 days
Procedure: (§2) Seeds selected from rice (Oryza sativa), sedge, umbrella (small-flower umbrella sedge Cyperus difformis), ducksalad (Heteranthera limosa), and barnyardgrass (Echinochloa crus-galli) were grown to the 2-leaf stage for testing. At time of treatment, test pots were flooded to 3 cm above the soil surface, treated by application of test compounds directly to the paddy water, and then maintained at that water depth for the duration of the test.
(§3) Treated plants and controls were maintained in a greenhouse for 13 to 15 days, after which time all species were compared to controls and visually evaluated. Plant response ratings, summarized in Table B, are based on a scale of 0 to 100 where 0 is no effect and 100 is complete control. A dash (-) response means no test result.

[18] = system: sedge, umbrella; experiment: Test B flood; format: in vivo, Cyperus difformis; details: 250 g ai/ha, visual rating on 0 to 100 scale (0 no effect, 100 complete control), 13 to 15 days
Procedure: as §2, §3

[19] = system: ducksalad; experiment: Test B flood; format: in vivo, Heteranthera limosa; details: 250 g ai/ha, visual rating on 0 to 100 scale (0 no effect, 100 complete control), 13 to 15 days
Procedure: as §2, §3

[20] = system: barnyardgrass; experiment: Test B flood; format: in vivo, Echinochloa crus-galli; details: 250 g ai/ha, visual rating on 0 to 100 scale (0 no effect, 100 complete control), 13 to 15 days
Procedure: as §2, §3

[21] = Preemergence, 1000 g ai/ha, 0 no effect, 100 complete control
[22] = Preemergence, 1000 g ai/ha, 0 to 100 scale, 0 no effect, 100 complete control
[23] = preemergence, 500 g ai/ha, visual injury after approx. 10 days, 0 to 100 scale (0 no effect, 100 complete control)
[24] = 1000 g ai/ha, visual rating after approx. 10 days, 0 to 100 scale (0 no effect, 100 complete control)
[25] = Postemergence, 1000 g ai/ha, visual rating after approx. 10 days, 0 to 100 scale (0 no effect, 100 complete control)
[26] = Preemergence, 500 g ai/ha, 0 no effect, 100 complete control
[27] = preemergence, 125 g ai/ha, visual injury, approx. 10 days
[28] = Postemergence, 500 g ai/ha, visual rating after approx. 10 days, 0 to 100 scale (0 no effect, 100 complete control)
[29] = postemergence, 125 g ai/ha, about 10 days, visual rating on 0 to 100 scale (0 no effect, 100 complete control)

CCCCN(C)C(=O)c1cc(CC)n(Cc2cccc(OC(F)(F)F)c2)n1 [Compound 63]
Barnyardgrass plant response rating [1, 21]: 0 | Crabgrass, Large plant response rating [2, 21]: 0 | Foxtail, Giant plant response rating [3, 21]: 0 | Morningglory plant response rating [4, 21]: 0 | Pigweed plant response rating [5, 21]: 0 | Velvetleaf plant response rating [6, 21]: 0 | Wheat plant response rating [7, 22]: 0 | Wheat plant response rating [7, 23]: 0 | Corn plant response rating [8, 21]: 0 | Barnyardgrass plant response rating [9, 24]: 0 | Crabgrass, Large plant response rating [10, 25]: 10 | Foxtail, Giant plant response rating [11, 25]: 20 | Morningglory plant response rating [12, 25]: 60 | Pigweed plant response rating [13, 25]: 70 | Velvetleaf plant response rating [14, 25]: 30 | Wheat plant response rating [15, 25]: 10 | Corn plant response rating [16, 25]: 20

CCc1cc(C(=O)NC)nn1Cc1cccc(OC(F)(F)F)c1 [Compound 65]
Barnyardgrass plant response rating [1, 21]: 60 | Crabgrass, Large plant response rating [2, 21]: 80 | Foxtail, Giant plant response rating [3, 21]: 70 | Morningglory plant response rating [4, 21]: 70 | Pigweed plant response rating [5, 21]: 90 | Velvetleaf plant response rating [6, 21]: 20 | Wheat plant response rating [7, 22]: 0 | Wheat plant response rating [7, 23]: 0 | Corn plant response rating [8, 21]: 0 | Barnyardgrass plant response rating [9, 24]: 50 | Crabgrass, Large plant response rating [10, 25]: 50 | Foxtail, Giant plant response rating [11, 25]: 50 | Morningglory plant response rating [12, 25]: 90 | Pigweed plant response rating [13, 25]: 70 | Velvetleaf plant response rating [14, 25]: 30 | Wheat plant response rating [15, 25]: 20 | Corn plant response rating [16, 25]: 30

CCc1cc(C(=O)N(C)OC)nn1Cc1cccc(OC(F)(F)F)c1 [Compound 67]
Barnyardgrass plant response rating [1, 21]: 0 | Crabgrass, Large plant response rating [2, 21]: 50 | Foxtail, Giant plant response rating [3, 21]: 90 | Morningglory plant response rating [4, 21]: 0 | Pigweed plant response rating [5, 21]: 0 | Velvetleaf plant response rating [6, 21]: 10 | Wheat plant response rating [7, 22]: 0 | Wheat plant response rating [7, 23]: 0 | Corn plant response rating [8, 21]: 0 | Barnyardgrass plant response rating [9, 24]: 20 | Crabgrass, Large plant response rating [10, 25]: 30 | Foxtail, Giant plant response rating [11, 25]: 40 | Morningglory plant response rating [12, 25]: 40 | Pigweed plant response rating [13, 25]: 40 | Velvetleaf plant response rating [14, 25]: 30 | Wheat plant response rating [15, 25]: 20 | Corn plant response rating [16, 25]: 30

CCc1cc(C(=O)N(C)CC)nn1Cc1cccc(OC(F)(F)F)c1 [Compound 68]
Barnyardgrass plant response rating [1, 21]: 0 | Crabgrass, Large plant response rating [2, 21]: 40 | Foxtail, Giant plant response rating [3, 21]: 60 | Morningglory plant response rating [4, 21]: 0 | Pigweed plant response rating [5, 21]: 70 | Velvetleaf plant response rating [6, 21]: 0 | Wheat plant response rating [7, 22]: 0 | Wheat plant response rating [7, 23]: 0 | Corn plant response rating [8, 21]: 0 | Barnyardgrass plant response rating [9, 24]: 30 | Crabgrass, Large plant response rating [10, 25]: 30 | Foxtail, Giant plant response rating [11, 25]: 20 | Morningglory plant response rating [12, 25]: 100 | Pigweed plant response rating [13, 25]: 60 | Velvetleaf plant response rating [14, 25]: 40 | Wheat plant response rating [15, 25]: 20 | Corn plant response rating [16, 25]: 30

CCCNC(=O)c1cc(C)n(Oc2ccnc(C(F)(F)F)c2)n1 [Compound 80]
Barnyardgrass plant response rating [1, 26]: 80 | Barnyardgrass plant response rating [1, 27]: 10 | Crabgrass, Large plant response rating [2, 26]: 100 | Crabgrass, Large plant response rating [2, 27]: 50 | Foxtail, Giant plant response rating [3, 26]: 90 | Foxtail, Giant plant response rating [3, 27]: 40 | Morningglory plant response rating [4, 26]: 60 | Morningglory plant response rating [4, 27]: 20 | Pigweed plant response rating [5, 26]: 100 | Pigweed plant response rating [5, 27]: 60 | Velvetleaf plant response rating [6, 26]: 50 | Velvetleaf plant response rating [6, 27]: 0 | Wheat plant response rating ([7]; preemergence, 125 g ai/ha, visual injury, 0 to 100 scale, approx. 10 days): 0 | Wheat plant response rating [7, 23]: 10 | Corn plant response rating [8, 26]: 0 | Corn plant response rating [8, 27]: 0 | Barnyardgrass plant response rating ([9]; 125 g ai/ha, 0 to 100 scale, 0 no effect, 100 complete control): 10 | Barnyardgrass plant response rating ([9]; 500 g ai/ha, visual rating after approx. 10 days, 0 to 100 scale (0 no effect, 100 complete control)): 40 | Crabgrass, Large plant response rating [10, 28]: 70 | Crabgrass, Large plant response rating [10, 29]: 10 | Foxtail, Giant plant response rating [11, 28]: 30 | Foxtail, Giant plant response rating [11, 29]: 10 | Morningglory plant response rating [12, 28]: 70 | Morningglory plant response rating [12, 29]: 30 | Pigweed plant response rating [13, 28]: 60 | Pigweed plant response rating [13, 29]: 40 | Velvetleaf plant response rating [14, 28]: 50 | Velvetleaf plant response rating [14, 29]: 10 | Wheat plant response rating [15, 28]: 10 | Wheat plant response rating [15, 29]: 0 | Corn plant response rating [16, 28]: 30 | Corn plant response rating [16, 29]: 10 | Plant response rating, Rice [17]: 0 | Plant response rating, Sedge, Umbrella [18]: 0 | Plant response rating, Ducksalad [19]: 0 | Plant response rating, Barnyardgrass [20]: 0

Reference: US20150105252A1, “SUBSTITUTED PYRAZOLES AS HERBICIDES” (E I DU PONT DE NEMOURS AND COMPANY, priority 2013, published 2015)
